Earlier results on two molecules are cited in US8637296B2, “Lactobacillus helveticus strains for producing hypotensive peptides” (Nestec S.A., priority 2008, dated 2014).

The target of the data set is angiotensin converting enzyme (ACE) (Homo sapiens, UniProt P12821).

The structures appear in SMILES notation.

Sequence of angiotensin converting enzyme (ACE) (P12821 30-1306, species assumed): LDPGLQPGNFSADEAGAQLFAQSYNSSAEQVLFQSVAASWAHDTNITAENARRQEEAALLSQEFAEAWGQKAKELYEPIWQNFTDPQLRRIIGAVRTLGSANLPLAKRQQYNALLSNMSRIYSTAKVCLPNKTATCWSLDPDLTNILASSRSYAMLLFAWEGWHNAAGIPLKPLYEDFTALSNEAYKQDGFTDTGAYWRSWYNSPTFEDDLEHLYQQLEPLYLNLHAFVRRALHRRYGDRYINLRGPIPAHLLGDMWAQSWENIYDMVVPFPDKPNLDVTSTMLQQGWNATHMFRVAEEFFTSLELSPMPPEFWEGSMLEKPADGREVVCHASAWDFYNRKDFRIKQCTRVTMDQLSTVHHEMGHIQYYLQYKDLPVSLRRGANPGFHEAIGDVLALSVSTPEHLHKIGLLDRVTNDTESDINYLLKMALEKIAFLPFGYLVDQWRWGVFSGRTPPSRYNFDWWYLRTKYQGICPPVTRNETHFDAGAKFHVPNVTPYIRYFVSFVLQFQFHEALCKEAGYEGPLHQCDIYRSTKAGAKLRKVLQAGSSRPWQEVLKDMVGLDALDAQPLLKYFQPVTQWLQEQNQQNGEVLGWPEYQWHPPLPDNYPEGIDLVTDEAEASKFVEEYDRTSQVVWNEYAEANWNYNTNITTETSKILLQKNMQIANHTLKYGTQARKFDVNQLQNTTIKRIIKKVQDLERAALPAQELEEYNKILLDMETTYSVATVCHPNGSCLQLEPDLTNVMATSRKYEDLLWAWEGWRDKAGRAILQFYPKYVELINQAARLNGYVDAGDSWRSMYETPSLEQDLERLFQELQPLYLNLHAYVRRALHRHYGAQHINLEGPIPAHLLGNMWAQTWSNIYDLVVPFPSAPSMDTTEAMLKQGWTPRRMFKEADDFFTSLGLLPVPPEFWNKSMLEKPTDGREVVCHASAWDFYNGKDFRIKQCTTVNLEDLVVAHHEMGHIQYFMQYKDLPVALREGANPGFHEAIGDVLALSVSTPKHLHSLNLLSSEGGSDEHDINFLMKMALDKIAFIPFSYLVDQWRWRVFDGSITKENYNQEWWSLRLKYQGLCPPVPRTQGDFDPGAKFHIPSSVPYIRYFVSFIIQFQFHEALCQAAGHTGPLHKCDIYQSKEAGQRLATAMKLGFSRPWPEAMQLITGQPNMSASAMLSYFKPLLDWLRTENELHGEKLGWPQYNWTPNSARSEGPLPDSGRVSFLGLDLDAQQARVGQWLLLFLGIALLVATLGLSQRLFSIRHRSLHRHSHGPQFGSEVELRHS

On to `CC[C@H](C)[C@H](N)C(=O)N1CCC[C@H]1C(=O)N1CCC[C@H]1C(=O)O` [IPP, isoleucyl-prolyl-proline], for which the “inhibition of angiotensin converting enzyme (ACE)” value is recorded as “inhibit”.

Regarding `CC(C)[C@H](N)C(=O)N1CCC[C@H]1C(=O)N1CCC[C@H]1C(=O)O` [VPP, valyl-prolyl-proline], the “inhibition of angiotensin converting enzyme (ACE)” value is reported as “inhibit”.
